Data: patent US7115572B2, “Indolicidin analogs with anti-microbial activity” (Council of Scientific and Industrial Research, priority 2001, dated 2006)
Read-outs that look alike come from different tables or passages of the source. Marks after values point to notes of the source that are not given here. No end group written: not given here.

Experiments:
Assay type in all cases: cell-based
[1] = tested on: Escherichia coli (W160.37)
Protocol: (§1) In still another embodiment of the present invention, the antimicrobial activities of the peptides are determined in liquid medium by a modified method described by Lehrer et al. (10) In still another embodiment of the present invention, all incubations are carried out at 37° C. Microbial growth is determined by measuring the increase in OD600. The lowest concentration of the peptide that result in complete inhibition of growth is recorded as its minimal inhibitory concentration (MIC). In still another embodiment of the present invention, the microorganisms used are Escherichia coli ([…]) and Staphylococcus aureus. A peptide concentration in stock solution is determined by amino acid analysis.

[2] = tested on: Staphylococcus aureus
Protocol: as §1

[3] = tested on: rat erythrocytes; assay: Hemolytic activity on freshly isolated rat erythrocytes
Protocol: In still another embodiment of the present invention, hemolytic activity of the peptides is assessed on freshly isolated rat erythrocytes.
In still another embodiment of the present invention, heparinized rat blood in saline is initially centrifuged at 1000 rpm for 10 min to remove the buffy coat.
In still another embodiment of the present invention, the erythrocyte suspension is further washed thrice with 5 mM Hepes, pH 7.4 containing 150 mM NaCl.
In still another embodiment of the present invention, aliquots of cell suspension (˜10^6 cells) in eppendorf tubes are incubated with the peptide in duplicates at 37° C. for 30 min with gentle mixing.
In still another embodiment of the present invention, the tubes are then centrifuged and the absorbance of the supernatants is measured at 540 nm. The lysis obtained with 1% triton×100 is taken as 100%.

[4] = lowest concentration giving complete inhibition of growth, 37° C., OD600

| E.CO// (MIC μg/ml) ([1]; W160.37) [µg/mL] | S.aureus (MIC μg/ml) [2] [µg/mL] | Compound | % Hemolytic activity at 100 μg/ml ([3]; red cells of rat, 100) [%] | E.CO// (MIC μg/ml) [1, 4] [µg/mL] | S.aureus (MIC μg/ml) [2, 4] [µg/mL] | % Hemolytic activity at 100 μg/ml ([3]; 100 μg/ml peptide, rat erythrocytes, 37° C., 30 min, 1% triton x100 = 100%) |
| --- | --- | --- | --- | --- | --- | --- |
| 20 | 5 | ILPLKLPLLPWRR-NH2 [IL11, ILPLKLPLLPWRR-amide] | 0 |  |  |  |
|  |  | CC[C@H](C)[C@H](N)C(=O)N[C@@H](CC(C)C)C(=O)N1CCC[C@H]1C(=O)N[C@@H](Cc1c[nH]c2ccccc12)C(=O)N[C@@H](CCCCN)C(=O)N[C@@H](Cc1c[nH]c2ccccc12)C(=O)N1CCC[C@H]1C(=O)N[C@@H](Cc1c[nH]c2ccccc12)C(=O)N[C@@H](Cc1c[nH]c2ccccc12)C(=O)N1CCC[C@H]1C(=O)N[C@@H](Cc1c[nH]c2ccccc12)C(=O)N[C@@H](CCCNC(=N)N)C(=O)N[C@@H](CCCNC(=N)N)C(N)=O [IL, ILPWKWPWWPWRR-amide, reference compound] |  | 5 | 2 | 100^a % |
| 20 | 10 | ILPLKLPWLPLRR-NH2 [IL8, ILPLKLPWLPLRR-amide] | 0 |  |  |  |
| 15 | 10 | ILPWKLPLLPLRR-NH2 [IL4, ILPWKLPLLPLRR-amide] | 0 |  |  |  |
